Experiment [1] deals with breast adenocarcinoma (MCF-7). In words: MTT cytotoxicity assay, MCF-7. The following applies: Homo sapiens, MCF7, read-out: IC50 MCF-7. For orientation: Tetrazolium assays rely on reduction of a dye to a coloured formazan, in cell work by metabolically active cells.
Experiment [2] relates to hepatoblastoma (HePG-2). Description: MTT cytotoxicity assay, HePG-2. The following applies: Homo sapiens, HepG2, read-out: IC50 HePG-2.
Experiment [3] deals with human colorectal carcinoma (HCT-116). Description: MTT cytotoxicity assay, HCT-116. The following applies: Homo sapiens, HCT-116, read-out: IC50 HCT-116.
Experiment [4] deals with WI-38 normal fibroblast cell line. In words: MTT cytotoxicity against normal human cells. As to conditions: Homo sapiens. In kind it is cell-based. The method, then:
The evaluation was conducted using a 3-(4,5-dimethylthiazol-2-yl)-2,5-diphenyltetrazolium bromide (MTT) assay, as described by the authors of [50, 51]. The cell lines were obtained from ATCC. For comparative purposes, standard drugs, such as doxorubicin and erlotinib, were employed.

Experiment [5] has as its system anti-apoptotic protein MCL-1 in MCF-7. Description: MCL-1 expression in MCF-7 cells (ELISA). Format: cell-based, human. The method, then:
(§1) Apoptosis is regulated by intrinsic pathways such as the B-cell lymphoma-2 (BCL-2) family. […] MCL-1, one of the BCL-2 family members, is likely to have a significant role in cell death. The expression of MCL-1 and BCL-2 in MCF-7 cells treated with different concentrations was studied.
(§2) Apoptosis of the MCF-7 cancer cell line was measured using the Human MCL1eia kit (ELISA Kit) for the MCL-1 enzyme assay and the Invitrogen Zymed® Bcl-2 ELISA Kit for the BCL-2 enzyme assay. The ROBONIK P2000 ELISA READER was used for analysis.
For orientation: In an ELISA, binding on a coated surface is turned into a signal by an enzyme label.

The subject of experiment [6] is anti-apoptotic protein BCL-2 in MCF-7. In words: BCL-2 expression in MCF-7 cells (ELISA). Format: cell-based, human. The method, then:
as §1, §2

Experiment [7] concerns MCF-7 cell line. In words: Cell cycle analysis (propidium iodide, flow cytometry). In kind it is cell-based, human. The text has this:
Cell cycle analysis is used to quantify DNA content distribution via flow cytometry at various cell cycle stages (pre-G1, G1, S, and G2/M). Compound 24 was selected to analyze its effect on cell cycle progression in the MCF-7 cell line at different concentrations.
Cancer cell line MCF-7 was stained with ab139418_Propidium Iodide (DNA stain) and analyzed using a FACSCalibur flow cytometer.
(A flow cytometer gives signals particle by particle.)

The subject of experiment [8] is HCT-116, HePG-2, and MCF-7. Description: MTT cytotoxicity, summary over the examined cancer cell lines. The following applies: Homo sapiens, read-out: IC50 range against the selected cell lines.

Read-outs that look alike come from different tables or passages of the source.

By IC50 is commonly meant the concentration at which inhibition is half-maximal.

With `CC(=NNC(=O)CN1C(=O)NC(c2ccccc2)(c2ccccc2)C1=O)c1ccccn1` [Compound 20, 2-(2,5-Dioxo-4,4-diphenylimidazolidin-1-yl)-N′-(1-(pyridin-2-yl)ethylidene)acetohydrazide], the figures for the IC50 in experiment [1], in experiment [2] and in experiment [3] were 32.4 ± 1.9 µM, 49.1 ± 2.8 µM and 46.7 ± 2.7 µM, respectively.

For `CC(=NNC(=O)CN1C(=O)NC(c2ccccc2)(c2ccccc2)C1=O)c1ccco1` [Compound 25, 2-(2,5-Dioxo-4,4-diphenylimidazolidin-1-yl)-N′-(1-(furan-2-yl)ethylidene)acetohydrazide], the results for the IC50 in experiment [1], in experiment [2] and in experiment [3] were 47.3 ± 2.6 µM, 34.6 ± 2.1 µM and 49.9 ± 2.9 µM, respectively.

In the case of `CC(=NNC(=O)CN1C(=O)NC(c2ccccc2)(c2ccccc2)C1=O)c1ccc(C)cc1` [Compound 9, 2-(2,5-Dioxo-4,4-diphenylimidazolidin-1-yl)-N′-(1-(p-tolyl)ethylidene)acetohydrazide], the figures for the IC50 in experiment [1], in experiment [2] and in experiment [3] were 69 ± 3.9 µM, 29.7 ± 2.1 µM and 71.2 ± 3.8 µM, respectively.

As to `CC(=NNC(=O)CN1C(=O)NC(c2ccccc2)(c2ccccc2)C1=O)c1ccncc1` [Compound 22, 2-(2,5-Dioxo-4,4-diphenylimidazolidin-1-yl)-N′-(1-(pyridin-4-yl)ethylidene)acetohydrazide], the IC50 is 13.1 ± 1.1 µM in experiment [1], 17.2 ± 1.6 µM in experiment [2] and 26 ± 1.9 µM in experiment [3].

On to `CC(=NNC(=O)CN1C(=O)NC(c2ccccc2)(c2ccccc2)C1=O)c1ccc([N+](=O)[O-])cc1` [Compound 19, 2-(2,5-Dioxo-4,4-diphenylimidazolidin-1-yl)-N′-(1-(4-nitrophenyl)ethylidene)acetohydrazide], for which the values for the IC50 in experiment [1], in experiment [2] and in experiment [3] were 20.4 ± 1.5 µM, 19.9 ± 1.8 µM and 31.3 ± 2.1 µM, respectively.

As to `COc1cccc(C(C)=NNC(=O)CN2C(=O)NC(c3ccccc3)(c3ccccc3)C2=O)c1` [Compound 15, 2-(2,5-Dioxo-4,4-diphenylimidazolidin-1-yl)-N′-(1-(3-methoxyphenyl)ethylidene)acetohydrazide], the IC50 in experiment [1] worked out at 55.3 ± 3.2 µM; in experiment [2], 45.1 ± 2.5 µM; in experiment [3] it was 53.9 ± 3.1 µM.

As for `CC(=NNC(=O)CN1C(=O)NC(c2ccccc2)(c2ccccc2)C1=O)c1ccccc1C` [Compound 8, 2-(2,5-Dioxo-4,4-diphenylimidazolidin-1-yl)-N′-(1-(o-tolyl)ethylidene)acetohydrazide], the IC50 in experiment [1] was 34.1 ± 2 µM; in experiment [2] it was 25.4 ± 1.8 µM; in experiment [3], 37.6 ± 2.3 µM.

Turning to `CC(=NNC(=O)CN1C(=O)NC(c2ccccc2)(c2ccccc2)C1=O)c1cccs1` [Compound 26, 2-(2,5-Dioxo-4,4-diphenylimidazolidin-1-yl)-N′-(1-(thiophen-2-yl)ethylidene)acetohydrazide], the IC50 in experiment [1] is 76.8 ± 4.2 µM; in experiment [2], 32.3 ± 2.2 µM; in experiment [3], 87.5 ± 4.6 µM.

Turning to `COc1ccc(C(C)=NNC(=O)CN2C(=O)NC(c3ccccc3)(c3ccccc3)C2=O)cc1OC` [Compound 17, N′-(1-(3,4-Dimethoxyphenyl)ethylidene)-2-(2,5-dioxo-4,4-diphenylimidazolidin-1-yl)acetohydrazide], the half-maximal inhibitory concentration (IC50) in experiment [1] is 15.7 ± 1.3 µM; in experiment [2] it was 19.6 ± 1.7 µM; in experiment [3], 26.8 ± 2 µM.

For `COc1cc(C(C)=NNC(=O)CN2C(=O)NC(c3ccccc3)(c3ccccc3)C2=O)cc(OC)c1OC` [Compound 18, 2-(2,5-Dioxo-4,4-diphenylimidazolidin-1-yl)-N′-(1-(3,4,5-trimethoxyphenyl)ethylidene)acetohydrazide], the IC50 in experiment [4] (normal fibroblast WI-38, read-out: IC50 WI-38) was found to be 60.8 µM; in experiment [1], 26 ± 1.6 µM; in experiment [2] it was 37.2 ± 2.3 µM; in experiment [3], 39.6 ± 2.4 µM.

As to `CC(=NNC(=O)CN1C(=O)NC(c2ccccc2)(c2ccccc2)C1=O)c1ccc(F)cc1` [Compound 11, 2-(2,5-Dioxo-4,4-diphenylimidazolidin-1-yl)-N′-(1-(4-fluorophenyl)ethylidene)acetohydrazide], the IC50 in experiment [1] was determined as 14.2 ± 1.2 µM; in experiment [2] it was 21.1 ± 1.8 µM; in experiment [3], 28.3 ± 2.1 µM.

On to `CC(=NNC(=O)CN1C(=O)NC(c2ccccc2)(c2ccccc2)C1=O)c1ccc(C(F)(F)F)cc1` [Compound 12, 2-(2,5-Dioxo-4,4-diphenylimidazolidin-1-yl)-N′-(1-(4-(trifluoromethyl)phenyl)ethylidene)acetohydrazide], for which the values for the IC50 in experiment [1], in experiment [2] and in experiment [3] were 45.8 ± 2.4 µM, 47.7 ± 2.7 µM and 52.5 ± 3 µM, respectively.

Turning to `CC(=NNC(=O)CN1C(=O)NC(c2ccccc2)(c2ccccc2)C1=O)c1ccc(Cl)s1` [Compound 27, N′-(1-(5-Chlorothiophen-2-yl)ethylidene)-2-(2,5-dioxo-4,4-diphenylimidazolidin-1-yl)acetohydrazide], the IC50 in experiment [1] was 19.7 ± 1.5 µM; in experiment [2], 16.8 ± 1.6 µM; in experiment [3], 33.2 ± 2.2 µM.

As to `COc1ccccc1C(C)=NNC(=O)CN1C(=O)NC(c2ccccc2)(c2ccccc2)C1=O` [Compound 14, 2-(2,5-Dioxo-4,4-diphenylimidazolidin-1-yl)-N′-(1-(2-methoxyphenyl)ethylidene)acetohydrazide], the values for the IC50 in experiment [1], in experiment [2] and in experiment [3] were 59.1 ± 3.4 µM, 63.3 ± 3.8 µM and 74 ± 3.9 µM, respectively.

On to `C#Cc1cccc(Nc2ncnc3cc(OCCOC)c(OCCOC)cc23)c1` [Erlotinib, reference compound], for which the IC50 in experiment [4] (WI-38, read-out: IC50 WI-38) is 46.5 µM; in experiment [1] it was 5.18 ± 0.4 µM; in experiment [2], 7.9 ± 0.6 µM; in experiment [3], 8.53 ± 0.5 µM; in experiment [8], 5.18 to 8.53 µM. For the same compound, the MCL-1 expression level is 560.59 pg/mL in experiment [5] (2 µM) and 162.37 pg/mL in experiment [5] (10 μM). Besides, the BCL-2 expression level in experiment [6] (2 µM) was 13.96 ng/mL; in experiment [6] (10 μM) it was 3.73 ng/mL. Also, the “Comment (cell cycle arrest)” value is given as “Cell cycle arrest at G2/M” in experiment [7] and “cell cycle arrest appeared at the G2/M phase” in experiment [7] (listed as erlotinib). Moreover, the “%G0–G1” value is reported as 46.12% in experiment [7] (2 µM) and 35.89% in experiment [7] (10 μM). The “%G2/M” value amounted to 31.05% in experiment [7] (2 µM) and 48.39% in experiment [7] (10 μM). Moreover, the figures for the “%S” value in experiment [7] (2 µM) and in experiment [7] (10 μM) were 22.83% and 15.72%, respectively.

Consider `CC(=NNC(=O)CN1C(=O)NC(c2ccccc2)(c2ccccc2)C1=O)c1cccc2ccccc12` [Compound 23, 2-(2,5-Dioxo-4,4-diphenylimidazolidin-1-yl)-N′-(1-(naphthalen-1-yl)ethylidene)acetohydrazide], for which the IC50 in experiment [1] amounted to 28.1 ± 1.7 µM; in experiment [2], 31.8 ± 2.1 µM; in experiment [3], 34.4 ± 2.3 µM.

On to `COc1cccc2c1C(=O)c1c(O)c3c(c(O)c1C2=O)C[C@@](O)(C(=O)CO)C[C@@H]3O[C@H]1C[C@H](N)[C@H](O)[C@H](C)O1` [Doxorubicin, reference compound], for which the IC50 in experiment [2] was 4.5 ± 0.2 µM; in experiment [8], 4.17 to 5.23 µM.

For the compound `COc1ccc(C(C)=NNC(=O)CN2C(=O)NC(c3ccccc3)(c3ccccc3)C2=O)cc1` [Compound 16, 2-(2,5-Dioxo-4,4-diphenylimidazolidin-1-yl)-N′-(1-(4-methoxyphenyl)ethylidene)acetohydrazide], the IC50 turned out to be 35.8 ± 2.1 µM in experiment [1], 27.3 ± 2 µM in experiment [2] and 36.5 ± 2.4 µM in experiment [3].

On to `CC(=NNC(=O)CN1C(=O)NC(c2ccccc2)(c2ccccc2)C1=O)c1ccccc1` [Compound 7, 2-(2,5-Dioxo-4,4-diphenylimidazolidin-1-yl)-N′-(1-phenylethylidene)acetohydrazide], for which the figures for the IC50 in experiment [1], in experiment [2] and in experiment [3] were 38.3 ± 2.2 µM, 55.8 ± 3.3 µM and 47.5 ± 2.8 µM, respectively.

The record behind these values is article PMC12030650, “Synthesis, Antitumor Activities, and Apoptosis-Inducing Activities of Schiff’s Bases Incorporating Imidazolidine-2,4-dione Scaffold: Molecular Docking Studies and Enzymatic Inhibition Activities” (Pharmaceuticals, 2025).
